Experimental data taken from paper PMC9282233 (Proceedings of the National Academy of Sciences of the …, 2022).

Target: Tsr (E. coli serine chemoreceptor) (Escherichia coli, UniProt P02942)
Experiment: in vivo FRET kinase assay
Assay type: cell-based

Chain of Tsr (E. coli serine chemoreceptor) (P02942 whole entry): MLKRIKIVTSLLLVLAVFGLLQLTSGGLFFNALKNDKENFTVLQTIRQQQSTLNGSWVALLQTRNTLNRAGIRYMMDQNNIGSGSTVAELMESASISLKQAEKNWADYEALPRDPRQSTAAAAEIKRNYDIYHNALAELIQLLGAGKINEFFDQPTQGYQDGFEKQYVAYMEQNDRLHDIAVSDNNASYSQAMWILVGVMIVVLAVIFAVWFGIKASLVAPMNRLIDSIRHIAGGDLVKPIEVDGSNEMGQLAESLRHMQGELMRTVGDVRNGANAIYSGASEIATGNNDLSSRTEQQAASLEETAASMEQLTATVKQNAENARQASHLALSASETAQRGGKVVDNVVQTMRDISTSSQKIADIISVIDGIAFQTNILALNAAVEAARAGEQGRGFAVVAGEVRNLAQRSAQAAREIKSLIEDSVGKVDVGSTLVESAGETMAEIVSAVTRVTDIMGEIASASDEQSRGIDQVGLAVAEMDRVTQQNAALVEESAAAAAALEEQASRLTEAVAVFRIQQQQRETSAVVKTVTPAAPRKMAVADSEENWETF

- IC50: 18 µM
SMILES: N[C@@H](CO)C(=O)O [serine]
